The structures appear in SMILES notation.

A short description of this assay: Defibrillator activity of efsevin enantiomers.

For `CCOC(=O)C1=CCN(S(=O)(=O)c2ccc(C)cc2)[C@@H]1c1ccccc1` [(R)-Efsevin], the “defibrillator activity of efsevin: active enantiomer” value was “Active Antipode”.

For the origin of these results see US12378193B2, “Anti-arrhythmicity agents” (The Regents of the University of California, priority 2014, dated 2025).
